In patent US20220054532A1, “VETERINARY COMPOSITIONS AND METHODS OF USE THEREFOR” (priority 2019, published 2022):

Assays:
Type in all cases: in vivo
[1] = test system: dogs suffering from seizures; experiment: Example 6: seizures in dogs; details: seizure scale 1 (seizure-free) to 10 (daily or multiple seizures); for Initial Score: day 0; for Final Score: day 60, BID
Description: (§1) This example examines the ability of embodiments of the invention versus phenobarbital to treat seizures.
(§2) The patient group is twenty-four dogs suffering from seizures as diagnosed by their referring veterinarian. The patient group is broken into six groups of four animals. The first group receives phenobarbital as the sole active agent; the second group receives a composition comprising phenobarbital and Keppra®; the third group receives a composition comprising HMW HA as the sole active agent; the fourth group receives a composition comprising CBD as the sole active agent; the fifth group receives a composition comprising HMW HA and CBD as the active agents; and the sixth group receives a composition comprising HMW HA, CBD, valerian root, and scutillaria as the active agents.
(§3) Each composition is administered for a period of sixty (60) days, BID. Each dog is evaluated on days 0 (“Initial Score”), 15, 30, 45, and 60 (“Final Score”) of treatment. The results are averaged and characterized on a scale of 1 (seizure-free) to 10 (daily seizures or multiple seizures during the event).
The following canine scores are observed and the results depicted in FIG. 6: […]

[2] = test system: dogs suffering from joint inflammation; experiment: Example 12: joint inflammation, thermal imaging (canine, CBD Complex); details: over the inflamed joint, 60 days BID
Description: (§4) This example examines the ability of embodiments of the invention versus Cosequin® to treat joint inflammation.
(§5) The first patient group is twenty dogs suffering from joint inflammation. The second patient group is twenty cats suffering from joint inflammation. The third patient group is twenty horses suffering from joint inflammation. Each patient group is broken into five groups of four animals. The first groups receive Cosequin® as the sole active agent; the second groups receive a composition comprising HMW HA as the sole active agent; the third groups receive a composition comprising CBD as the sole active agent; the fourth groups receive a composition comprising HMW HA and CBD Complex as the active agents; and the fifth groups receive a composition comprising HMW HA, CBD Complex, Boswellia, and superoxide dismutase (“SOD”) as the active agents.
(§6) Each composition is administered for a period of sixty (60) days, BID. Efficacy is determined by a decrease in body temperature over the inflamed joint, as measured by thermal imaging (e.g., via Digatherm device). Thermal imaging is performed on days 0 (“Initial Score”), 15, 30, 45, and 60 (“Final Score”) of treatment.
The following canine scores are observed and the results depicted in FIG. 12a: […]

[3] = test system: dogs suffering from GI-specific inflammation; experiment: Example 3: GI-specific inflammation, owner-rated symptom reduction (canine); details: symptom reduction score 0 (no reduction) to 4 (resolution of symptoms); for Final Score: after 28 days BID
Description: This example examines the ability of embodiments of the invention versus Pepcid® to treat unwanted GI-specific inflammation characterized by gastritis, reflux, vomiting, diarrhea, and inappetence.
The first patient group is twenty dogs suffering from GI-specific inflammation. The second patient group is twenty cats suffering from GI-specific inflammation. Each patient group is broken into five groups of four animals. The first groups receive Pepcid® as the sole active agent; the second groups receive a composition comprising HMW HA as the sole active agent; the third groups receive a composition comprising CBD as the sole active agent; the fourth groups receive a composition comprising HMW HA and CBD as the active agents; and the fifth groups receive a composition comprising HMW HA, CBD, and glutathione as the active agents.
Each composition is administered for a period of twenty-eight (28) days, BID. The owner observes potential reduction of symptoms at the end of treatment and rates the reduction as no reduction (score of 0), mild reduction (score of 1), moderate reduction (score of 2), significant reduction (score of 3), or resolution of symptoms (score of 4).
The following canine scores are observed and the results depicted in FIG. 3a: […]

[4] = test system: dogs suffering from seizures; experiment: Example 14: seizures in dogs (CBD Complex); details: seizure scale 1 (seizure-free) to 10 (daily or multiple seizures); for Initial Score: day 0; for Final Score: day 60, BID
Description: as §1
as §2, with “and CBD Complex as the” for “and CBD as the”, “HMW HA, CBD Complex, valerian root,” for “HMW HA, CBD, valerian root,”
as §3
The following canine scores are observed and the results depicted in FIG. 14: […]

[5] = test system: horses suffering from joint inflammation; experiment: Example 12: joint inflammation, thermal imaging (equine, CBD Complex); details: over the inflamed joint, 60 days BID
Description: as §4, §5, §6
The following equine scores are observed and the results depicted in FIG. 12c: […]

[6] = test system: dogs suffering from cognitive dysfunction syndrome; experiment: Example 2: cognitive decline, Cognitive Dysfunction Screening Checklist; details: for Average Initial Score: day 0 (before treatment); for Average Final Score: day 60, BID
Description: This example examines the ability of embodiments of the invention versus Anipryl® to treat cognitive decline.
The patient group is twenty dogs suffering from cognitive dysfunction syndrome, as determined by the Cognitive Dysfunction Screening Checklist. See G. Landsberg et al., 2003 HANDBOOK OF BEHAVIOR PROBLEMS OF THE DOG AND CAT (Elsevier Science Limited) (2003). The twenty dogs are broken into five groups of four dogs. The first group receives Anipryl® as the sole active agent; the second group receives a composition comprising HMW HA as the sole active agent; the third group receives a composition comprising CBD as the sole active agent; the fourth group receives a composition comprising HMW HA and CBD as the active agents; and the fifth group receives a composition comprising HMW HA, CBD, nicotinamide adenine dinucleotide (“NAD”), and phosphatidylserine as the active agents.
Each composition is administered for a period of sixty (60) days, twice per day (“BID”). The owner completes the Checklist on days 0 (“Initial Score”), 15, 30, 45, and 60 (“Final Score”) of treatment.
Each group is evaluated and Checklist scores averaged. The following scores are observed and the results depicted in FIG. 2: […]

| Compound | Initial Score [1] | Final Score [1] | Reduction in Temperature (° F.) [2] [° F.] | Final Score [3] | Initial Score [3] | Initial Score [4] | Final Score [4] | Reduction in Temperature (° F.) [5] [° F.] | Average Initial Score [6] | Average Final Score [6] |
| --- | --- | --- | --- | --- | --- | --- | --- | --- | --- | --- |
| C=C(C)[C@@H]1CCC(C)=C[C@H]1c1c(O)cc(CCCCC)cc1O [CBD Alone, 2-[(1R,6R)-3-methyl-6-prop-1-en-2-ylcyclohex-2-en-1-yl]-5-pentylbenzene-1,3-diol] | 9 | 4 | 1.7 | 2 | 0 | 9 | 4 | 1.6 | 3 | 1.5 |
| hyaluronic acid [HMW HA Alone] | 9 | 5 | 1.9 | 3 | 0 | 9 | 5 | 2.1 | 3 | 2 |
